# Assay: Human HepG2 cell viability assay in 384 well format
# Assay type: toxicity, cell-based
# Parameters: dose 125 nL, time 70.5 hour; cytotoxicity at 70.5 h: concentration not given beside the values
# Conditions: HepG2 cells, read-out: Inhibition
row,SMILES,cytotoxicity at 70.5 h [%]
1,CCCc1ccc2oc(C(=O)N3CCC(O)CC3)c(C)c2c1,6.68
2,Cc1ccccc1N1CCCN(C(=O)CCc2nncn2C)CC1,-7.29
3,Cc1nccc(N[C@H]2CN(C(=O)CN3CCOCC3)C[C@@H]2C(C)C)n1,-1.67
4,Cc1c(NC(=O)c2cnc[nH]2)cccc1C(=O)NC(C)(C)C,-5.11
5,CCOc1c(CNC2CSCCSC2)cccc1OC,20.2
6,CC(C)C[C@H](Nc1nc(C2CCCC2)nc2c1cnn2C)C(N)=O,-6.77
7,COc1ccccc1Oc1ncccc1CNC(=O)[C@H](C)O,-6.71
8,CCN1CC(C(=O)N2CCc3cc(C(N)=O)n(C)c3C2)CCC1=O (stereo not given),-6.08
9,Cc1ccc([C@@H]2CN(C(=O)CCc3cc(Cl)no3)C[C@H]2N(C)C)cc1,11.1
10,O=C(COCc1ccccc1)N1CCN(Cc2ccccc2F)C(=O)C1,-9.08
11,Cc1nn(C)c(C)c1CN(C)C(=O)c1cccc(CCC(C)(C)O)c1,-0.259
12,CC(c1ccco1)N(C)Cc1cccc(C(=O)Nc2nccn2C)c1 (stereo not given),-5.04
13,O=C(c1cnn[nH]1)N1CCCC1c1nc2cc(F)ccc2[nH]1 (stereo not given),-12.1
14,COCCC(=O)N1C[C@H](C(C)C)[C@@H](N(C)C)C1,-14.3
15,CCC1CN(C(=O)c2ccccc2C#N)CCN1C(C)C (stereo not given),14.9
16,CCS(=O)(=O)c1ncc(CN(C)C)n1Cc1ccccc1,-3.58
17,CCn1ncnc1CN1CCOC(Cc2cccc3ccccc23)C1 (stereo not given),-7.56
18,O=C1CCC(C(=O)N2CCC(Cn3cc(C4CCCC4)nn3)CC2)=NN1,-2.69
19,O=S(=O)(N1CCOCC1)N1CCCCC1CCc1ccc(O)cc1 (stereo not given),-1.47
20,COc1ccccc1OCCCN1C(=O)CCNC1=O,32
21,CN(Cc1ccncn1)C(=O)c1cccc(CCC(C)(C)O)c1,-2.23
22,CCOC(=O)CC1CCCCN1C(=O)c1cnc(C)cn1 (stereo not given),-4.78

row,SMILES,cytotoxicity at 70.5 h [%]
1,COCCN1CC2(CCCN(C(=O)NCc3ccccc3)C2)CCC1=O (stereo not given),0.704
2,O=C(c1ccc(-c2nc[nH]n2)cc1)N1CCOC(C(F)(F)F)C1 (stereo not given),23.3
3,CCN(C)S(=O)(=O)N1CCCC(c2cccc(C(=O)O)c2)C1 (stereo not given),-8.54
4,Cc1cnccc1NCCn1ccnc1C1CCCCC1,0.0765
5,COCCn1ccnc1CN1CCc2[nH]cnc2C1c1cnn(C)c1C (stereo not given),-13.2
6,Cc1cc(C)c2c(NCC3(O)CCCCC3)ncnc2n1,-2.73
7,COc1ccc(C(C(=O)O)N2CCN(C3CCCC3)CC2)cc1OC (stereo not given),12.5
8,CCc1cn[nH]c1C1CCN(c2cc(C)c3cccc(OC)c3n2)CC1,0.472
9,COCCS(=O)(=O)c1ncc(CN(C)C)n1Cc1ccccc1,4.62
10,Cc1nc2cc(OCc3nc(C(=O)NC(C)(CO)CO)co3)ccc2s1,6.62
11,COc1ccc(-n2cccn2)c(CN2CCOCC(CN(C)C)C2)c1 (stereo not given),18.8
12,COCCn1cncc1Cn1cccc(C(F)(F)F)c1=O,6.51
13,FC(F)(F)c1ccccc1CCC1CCCN(Cc2cscn2)C1 (stereo not given),44.3
14,CN(Cc1nc(Cc2cccc(C(F)(F)F)c2)no1)C(C1CC1)C1CC1,-9.87
15,CCN(CCN1CCOCC1)C(=O)c1cccnc1,4.89
16,CCc1nc(N2CCN(Cc3ncccc3C)CC2)c2cnn(C)c2n1,-4.75
17,CC(C(=O)N(C)Cc1noc(C2CCC2)n1)N1CCc2ccccc2C1 (stereo not given),23.9
18,CC(C)=CCN1C(=O)[C@H]2CC[C@@H]1CN(c1ncccc1F)C2,-22.9
19,O=C(CO)N1CCC2(CC1)CC(=O)N(Cc1cc(F)cc(F)c1)C2,-1.76
20,CCC(CO)N(Cc1cccc(-n2cccn2)c1)Cc1ccccn1 (stereo not given),8.06
21,CC(c1ccncn1)N(C)S(=O)(=O)NCc1ccccc1 (stereo not given),47.6
22,CCC(C)N(Cc1sccc1C)C(=O)c1ccc(S(C)(=O)=O)cc1 (stereo not given),-4.15

row,SMILES,cytotoxicity at 70.5 h [%]
1,CCOc1ccc(-c2c(-c3ccccc3)ncn2C2CCNC2)cn1 (stereo not given),-12.8
2,OCc1ccc(-c2c(-c3ccccc3)ncn2CCN2CCOCC2)o1,16.6
3,CN1CC2(CCN(C(=O)CCc3nc4cccnc4n3C)C2)OC1=O (stereo not given),15.3
4,COCC(=O)NCC1CCCN(Cc2cc3ccccc3[nH]2)C1 (stereo not given),-13.5
5,CCc1nccc(CN2CCCC(CNC(=O)c3ccccn3)C2)n1 (stereo not given),-3.62
6,Cc1ccc(CSc2nc(N)cc(NCCC(=O)N3CCCC3)n2)cc1,-4.18
7,NCC1Cc2cccc(-c3ccc(O)c(F)c3)c2O1 (stereo not given),-13.6
8,CC(=O)Nc1ccsc1C(=O)N1CC[C@@H]2CC[C@H](C1)N2C,-6.78
9,Cc1ccc(N2C[C@H](O)[C@@H](N3CCN(c4ccccn4)CC3)C2)nn1,-11.3
10,Cc1ccccc1N1CCCN(C(=O)CCc2ccncc2)CC1,-9.24
11,Cc1ccc(OC2(C(=O)O)CCN(C(=O)c3ccsc3)CC2)cn1,-4.13
12,CCCN1CCC(CC(=O)NCc2cc(O)ncn2)CC1,-11.6
13,Cc1ccccc1NC(=O)N1CCN(C(=O)C2CC2)[C@@H]2CS(=O)(=O)C[C@@H]21,-6.63
14,Clc1cccc2c1CCN(Cc1nc(CC3CC3)no1)C2,-5.71
15,COc1ccc2[nH]c(CNc3cc(C4CCNCC4)nc(C)n3)cc2c1,-3.5
16,CC(C)=CCN1C[C@H]2CC[C@@H]1CN(Cc1cc(=O)[nH]c(=O)[nH]1)C2,-3.94
17,CCN(CCc1nc2cc(C)ccc2[nH]1)C(=O)COC,-4.93
18,Cc1ccc2[nH]c(CN(C)Cc3n[nH]c4c3CCC4)nc2c1,-3.51
19,COc1cccc(OC)c1OCCN1C(=O)CCNC1=O,26.5
20,Cc1ccccc1C(=O)NC[C@@H]1CCN(C(=O)CN2CCCC2)C[C@H]1O,-5.06
21,CN(Cc1cnc(N)nc1)C(=O)c1coc(COc2ccccc2)n1,-2.22
22,CC(C)c1nnc(NCc2cc3n(n2)CCNC3)s1,-8.56

row,SMILES,cytotoxicity at 70.5 h [%]
1,CC(=O)NCCC1CCCCN1C(=O)c1cccc(CCC(C)(C)O)c1 (stereo not given),-6.03
2,CCNC(=O)[C@@H]1C[C@H](N)CN1Cc1ccc(-c2cc[nH]n2)o1,9.98
3,COC(=O)C1CCCN1C(=O)c1cc(CC(C)C)no1 (stereo not given),-1.76
4,O=C(O)C1c2nc[nH]c2CCN1Cc1cc(-c2ccccc2)no1 (stereo not given),-4.98
5,COCCN(C)C[C@@H]1CN(C(=O)c2ccc3c(c2)OCO3)C[C@@H]1CO,-12.8
6,CCN(CC)C(=O)Cn1cc(C(=O)NCCCc2scnc2C)nn1,-4.02
7,Cc1ccsc1C(=O)NCc1cccnc1N(C)CCc1ccccn1,-7.98
8,COCCN1CCC(C(=O)N(C)CCOc2ccc(C)cc2Cl)C1 (stereo not given),20.7
9,O=C(c1cnnn1-c1ccccc1)N1CCCC(c2ccn[nH]2)C1 (stereo not given),48.8
10,O=c1[nH]c(-c2cccnc2)nc2c1CCN(S(=O)(=O)N1CCCC1)C2,-12
11,COc1ccc(OC2CCN(C(=O)CCc3n[nH]c(N)n3)CC2)cc1,21.5
12,COc1cccc(C(=O)N2C[C@H]3CC[C@@H]2CN(Cc2cscn2)C3)c1,-23.3
13,CCn1c(CC2CCN(C(=O)C3CNCCO3)CC2)nn(C)c1=O (stereo not given),-16.2
14,COCCCN1C(=O)CC[C@H]2CN(Cc3cc4ccccc4o3)CC[C@H]21,-1.98
15,Cc1cc(N2CCN(C(=O)CCc3scnc3C)CC2)nc(N)n1,18.7
16,CCOc1cccc(CN2CCCC(Nc3ccc(F)cc3)C2)c1O (stereo not given),-6.06
17,Cn1ccc2c(-c3nccc(N)n3)ccnc21,5.54
18,CCn1ncnc1C1CC(=O)NCc2nc(N3CCOCC3)sc21 (stereo not given),-20.5
19,O=C(CCN1CCCO1)N1CC[C@@H](c2ccc3ccccc3c2)[C@H](O)C1,0.165
20,CC(C)c1nccn1C(C)C(=O)N1CCN(S(C)(=O)=O)CC1 (stereo not given),-9.53
21,COc1ccccc1CN(C)C(=O)CN1C(=O)OC[C@@H]1c1ccccc1,19.7
22,CCc1nc(C)c([C@H]2CN(C)C[C@@H]2C(=O)NC(C)(C)c2ccccc2)[nH]1,-6.37

row,SMILES,cytotoxicity at 70.5 h [%]
1,CCc1cc(N2CCC(NCCc3ccc(C)o3)CC2)nc(C)n1,-16.4
2,Cc1cc(C2CCCN2C(=O)Cn2c(C)cc(=O)c3ccccc32)on1 (stereo not given),-6.42
3,Cc1cc2nc(C(C)C)cc(N3CCN(S(N)(=O)=O)CC3)n2n1,-3.4
4,CCCS(=O)(=O)N1CCC2(CC1)CC(=O)N(CCCc1ccccc1)C2,23.4
5,CN1CCC(N(C)C[C@H]2CC[C@@H](Cc3cccc(CO)c3)O2)CC1,5.66
6,CC(=O)N1CCc2c(nc(N(C)C)nc2N(C)CCC2CCCCO2)C1 (stereo not given),11.3
7,CCc1cc(N(C)Cc2ccncn2)n2nc(C)c(C)c2n1,-5.09
8,Cc1nn(C)c(C)c1NC(=O)c1cccc(CN2C[C@H]3CC[C@@H](C2)N3)c1,-13.8
9,CCCc1nnc(NC2CCN(C3CCSCC3)CC2)o1,-13.9
10,CS(=O)(=O)N1C[C@@H]2CC[C@H](C1)N(C/C=C/c1ccc(F)cc1)C2,-4.45
11,COC(=O)c1ccc(OC)c(OC23CCCN(CC2)C3)c1 (stereo not given),-8.44
12,NC(=O)c1cncc(Oc2cccc(CN3CCCC3)c2Cl)n1,-4.84
13,CCN(Cc1cnn(C)c1)C[C@H]1CC[C@@H](Cc2cccc(CN)c2)O1,3.32
14,Fc1cccc(Cl)c1Cn1ncnc1CSCCN1CCCC1,-6.36
15,O=C(NC1CCC1)c1cccc(S(=O)(=O)NCc2nc(C3CC3)no2)c1,6.45
16,COc1cc(C(=O)N2CC[C@@H](NC(=O)c3ccccn3)[C@H](O)C2)ccn1,-9.28
17,CCN(CC)C1CCN(C(=O)c2cc(CC(C)C)nn2CC)C1 (stereo not given),3.49
18,CCN1CC2(CCN(Cc3nc(CSC)no3)CC2)CC1=O,23.5
19,Cc1cc2cccc(C(=O)N3CC[C@@H](N)[C@H](O)C3)c2o1,-9.95
20,Cc1cc(C(F)(F)F)nc(N2CCN(Cc3nccn3C)CC2)n1,4.75
21,Cn1cc(CN2CCC(CCC(=O)NC3CC3)CC2)cn1,0.934
22,CCn1ccnc1CN(C)C1CCCN(Cc2ccccc2F)C1 (stereo not given),-1.31

# Source: ChEMBL document CHEMBL3507680, “University of Dundee, Gates Library screen for HepG2 cell viability”
